US20210330611A1, “THERAPY FOR NEUROLOGICAL DISEASES/DISORDERS” (priority 2020, published 2021)
Counter-ions that a name gives are not always drawn. Like-named read-outs stand apart in the source and are kept apart here.

What was measured:
[1] = test system: fibrin-induced microglia activation; test: Image-based assay of fibrin-induced microglia activation (HTS and dose response); assay type: cell-based, rat; details: for inhibition at 10 µM: Rattus norvegicus, Microglia, read-out: Fibrin % inhibition
[2] = test system: LPS-induced microglia activation; test: Image-based assay of LPS-induced microglia activation (HTS and dose response); assay type: cell-based, rat; details: for inhibition at 10 µM: Rattus norvegicus, Microglia, read-out: LPS % inhibition
[3] = test system: fibrin- and LPS-induced microglia activation; test: cells; assay type: cell-based, rat
primary rat microglia [4] = test system: primary rat microglia;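 as to Fibrin % cell toxicity: share of dead cells sized under 150 µm2 at 10 µM in fibrin-stimulated microglia HTS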
primary rat microglia [5] = test system: primary rat microglia; remark: listed apart in the source;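 as to Fibrin % cell toxicity: share of dead cells sized under 150 µm2 at 10 µM in fibrin-stimulated microglia HTS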
[6] = primary HTS, 10 μM, fibrin-stimulated primary microglia
[7] = primary HTS, 10 μM, LPS-stimulated primary microglia

Row | SMILES | inhibition at 10 µM [1, 6] [%] | inhibition at 10 µM [2, 7] [%] | Quadrant (FIG. 5b) ([3]; primary HTS, 10 μM) | Fibrin % cell toxicity (primary rat microglia [4]; rat) [%] | LPS % cell toxicity (primary rat microglia [5]; rat) [%] | inhibition at 10 µM [1] [%] | inhibition at 10 µM [2] [%] | Quadrant (FIG. 5b) [3] | also measured
1 | CC(=O)Oc1ccc(C(c2ccc(OC(C)=O)cc2)c2ccccn2)cc1 [Bisacodyl] | 10 | 8 | Q4 | 0 | 0 |  |  |  | 
2 | Oc1c(Cl)cc(Cl)cc1Sc1cc(Cl)cc(Cl)c1O [Bithionol] | 11 | 14 | Q4 | 1 | 0 |  |  |  | 
3 | CC(=O)OC1CC2CCC1(C)C2(C)C (stereo not drawn) [Bornyl Acetate] | -38 | 2 | Q4 | 0 | 0 |  |  |  | 
4 | CC(C)C[C@H](NC(=O)[C@H](Cc1ccccc1)NC(=O)c1cnccn1)B(O)O [Bortezomib] |  |  |  | 86 | 56 |  |  |  | inhibition at 10 µM ([1]; primary microglia HTS, fibrin stimulation, increased cell size (>800 μm^2) as marker of activation): 106%; inhibition at 10 µM ([2]; 48 h, primary microglia HTS, LPS stimulation, increased cell size (>800 μm^2) as marker of activation): 106%; Quadrant (FIG. 5b) ([3]; quadrant by fibrin and LPS inhibition in HTS of 1907 compounds): Q2
5 | CC[N+](C)(C)Cc1ccccc1Br [Bretylium] |  |  |  | 0 | 0 | -26 | -9 | Q4 | 
6 | Brc1c(NC2=NCCN2)ccc2nccnc12 [Brimonidine] |  |  |  | 1 | 0 | -36 | -9 | Q4 | 
7 | CCOc1ccc(NC(=O)CC(C)O)cc1 (stereo not drawn) [Bucetin] | -25 | 12 | Q4 | 0 | 0 |  |  |  | 
8 | O=C1CC2(CCCC2)CC(=O)N1CCCCN1CCN(c2ncccn2)CC1 [Buspirone] |  |  |  | 0 | 0 | -13 | 8 | Q4 | 
9 | CS(=O)(=O)OCCCCOS(C)(=O)=O [Busulfan] | 1 | 2 | Q4 | 0 | 0 |  |  |  | 
10 | O=C(O)CCC(=O)OC[C@@H](NC(=O)C(Cl)Cl)[C@H](O)c1ccc([N+](=O)[O-])cc1 [CHLOR[…]] |  |  |  | 2 | 1 | 24 | 14 | Q4 | 
11 | CCCCCOC(=O)Nc1nc(=O)n([C@@H]2O[C@H](C)[C@@H](O)[C@H]2O)cc1F [Capecitabine] | 43 | 25 | Q4 | 1 | 1 |  |  |  | 
12 | CCN(CC)CCOCCOC(=O)C1(c2ccccc2)CCCC1 [Carbetapentane Citrate] | -13 | 7 | Q4 | 1 | 0 |  |  |  | 
13 | CC(C(=O)O)c1ccc2c(c1)[nH]c1ccc(Cl)cc12 (stereo not drawn) [Carprofen] | -2 | 15 | Q4 | 0 | 0 |  |  |  | 
14 | CC=CC1=C(C(=O)O)N2C(=O)[C@@H](NC(=O)[C@H](N)c3ccc(O)cc3)[C@H]2SC1 [Cefprozil] |  |  | Q4 |  |  |  |  |  | Fibrin % inhibition [1, 6]: 3%; LPS % inhibition [2, 7]: 14%; Fibrin % cell toxicity (primary rat microglia [4]): 0%; LPS % cell toxicity (primary rat microglia [5]): 0%
15 | CO/N=C(\C(=O)N[C@@H]1C(=O)N2C(C(=O)O)=C(CSc3nc(=O)c(=O)[nH]n3C)CS[C@H]12)c1csc(N)n1 [Ceftriaxone] |  |  |  | 1 | 0 | -16 | 12 | Q4 | 
16 | CO/N=C(\C(=O)N[C@@H]1C(=O)N2C(C(=O)O)=C(COC(N)=O)CS[C@H]12)c1ccco1 [Cefuroxime Sodium] |  |  | Q4 | 1 | 1 |  |  |  | Fibrin % inhibition [1, 6]: −12%; LPS % inhibition [2, 7]: 19%
17 | CO/N=C(\C(=O)N[C@@H]1C(=O)N2C(C(=O)O)=C(COC(N)=O)CS[C@H]12)c1ccco1 [Cefuroxime] |  |  | Q4 | 1 | 0 |  |  |  | Fibrin % inhibition [1, 6]: 16%; LPS % inhibition [2, 7]: 2%
18 | Cc1ccc(-c2cc(C(F)(F)F)nn2-c2ccc(S(N)(=O)=O)cc2)cc1 [Celecoxib] | -31 | 21 | Q4 | 0 | 0 |  |  |  | 
19 | OC[C@@H](O)[C@H]1O[C@@H]2O[C@H](C(Cl)(Cl)Cl)O[C@@H]2[C@H]1O [Chloralose] |  |  |  | 1 | 0 | -14 | 9 | Q4 | 
20 | O=C(O)CCCc1ccc(N(CCCl)CCCl)cc1 [Chlorambucil] | 8 | -7 | Q4 | 1 | 0 |  |  |  | 
21 | CCN(CC)CCCC(C)Nc1ccnc2cc(Cl)ccc12 (stereo not drawn) [Chloroquine] |  |  |  | 0 | 0 | 2 | 7 | Q4 | 
22 | Oc1c(Cl)cc(Cl)c2cccnc12 [Chloroxine] | -17 | 8 | Q4 | 1 | 0 |  |  |  | 
23 | CN(C)CCC(c1ccc(Cl)cc1)c1ccccn1 (stereo not drawn) [Chlorphenamine] | 0 | 13 |  | 1 | 0 |  |  | Q4 | 
24 | CCOP(=S)(OCC)Oc1nc(Cl)c(Cl)cc1Cl [Chlorpyrifos] | -7 | 1 | Q4 | 1 | 0 |  |  |  | 
25 | C[C@H](CCC(=O)O)[C@H]1CC[C@H]2[C@@H]3[C@H](O)C[C@@H]4C[C@H](O)CC[C@]4(C)[C@H]3C[C@H](O)[C@]12C [Cholic Acid] |  |  |  | 0 | 0 | -31 | -5 | Q4 | 
26 | C[N+](C)(C)CCO [Choline] |  |  |  | 0 | 0 | 0 | 12 | Q4 | 
27 | CC1(C)C[C@@H]1C(=O)N/C(=C\CCCCSC[C@H](N)C(=O)O)C(=O)O [Cilastatin] |  |  |  | 1 | 0 | -6 | 2 | Q4 | 
28 | O=C1CCc2cc(OCCCCc3nnnn3C3CCCCC3)ccc2N1 [Cilostazol] | 5 | 17 | Q4 | 1 | 1 |  |  |  | 
29 | CN/C(=N/CCSCc1nc[nH]c1C)NC#N [Cimetidine] |  |  |  | 0 | 1 | -1 | 22 | Q4 | 
30 | CC(C)(Oc1ccc(C2CC2(Cl)Cl)cc1)C(=O)O (stereo not drawn) [Ciprofibrate] | -16 | 16 | Q4 | 0 | 1 |  |  |  | 
